The subject of series [1] is Malassezia furfur (Pityrosporum ovale) MTCC 1374. The experiment in a line: MIC by macrobroth double dilution (NCCLS). The format is cell-based. The method, then: (§1) MIC value—is the lowest concentration of the antimicrobial agent required to inhibit growth of the microorganism was determined by the macrobroth double dilution method as per the NCCLS guidelines. (Reference Method for broth dilution antifungal susceptibility testing of Yeasts, Approved Standard; M27A, Vol. 17, No. 9, 1997 & Methods for dilution antimicrobial susceptibility tests for bacteria that grow aerobically; Approved Standard—5th Ed., M7-A5, Vol. 20, No. 2, 2000. National Committee for Clinical Laboratory Standards, Wayne, Pa.).
(§2) The test substances viz., TCS, CMB, ZPTO, KTZ, LGO, Citral, Nerol & Geraniol were prepared as stock solutions. Weighed 10 mg of TCS, CMB, ZPTO, & KTZ individually and dissolved in 1 ml of solvent (IN NaOH for TCS and DMSO for CMB, ZPTO & KTZ) and diluted in 19 ml SDB. The concentration of the prepared substances was 500 μg/ml. Similarly, weighed 400 mg of LGO, Citral, Nerol & Geraniol individually and dissolved in 2 ml DMSO and diluted in 18 ml SDB. The concentration of LGO, Citral, Nerol & Geraniol was 20000 μg/ml. All test solutions were prepared afresh prior to determination of MIC.
(§3) S. aureus, S. epidermidis and B. subtilis were cultured in Mueller Hinton Agar (MHA) for 24 hrs. at 37° C. 1-2 colonies were suspended in MHB overnight at 37° C. C. albicans and A. niger were cultured in Sabauraud Dextrose Agar (SDA) at 28° C. for 24 hrs and 4 days respectively. 1-2 colonies of C. albicans was suspended in SDB and cultured overnight at 28° C. Aspergillus spores were washed with physiological saline prior to testing. M. furfur was cultured in SDA with 1% Tween 80 for 72 hrs at 32° C. Colonies were suspended in SDB with 1% Tween 80 and incubated at 32° C. M. restricta was cultured in Dixon agar at 32° C. for 3-4 days. Colonies were suspended in saline prior to testing.
(§4) Colonies suspended in broth/saline were determined for counts photometrically. (Hammer K A, et al.: Antimicrob. Agents Chemo., (2000), 44(2): 467-469). The organisms were diluted such that the final concentration was 1×10^6 cfu/ml for S. aureus, S. epidermidis and B. subtilis, 1×10^5 cfu/ml for C. albicans and A. niger and 2×10^3 cfu/ml for M. furfur and M. restricta.
(§5) Double fold serial dilutions were done with the test substance, such that the final concentration of TCS was between 250 μg/ml and 0.03 μg/ml; and that of functionalized hydrocarbon (Citral, Nerol, Geraniol) and/or mixtures containing such functionalized hydrocarbons (LGO) was between 10000 μg/ml-19.53 μg/ml. Inoculated organisms were added to the tubes and required controls were also set up in the assay to rule out contamination/inactivation of the test substance.
(§6) Tubes were incubated for 24 hrs at 37° C. for S. aureus, S. epidermidis and B. subtilis; at 28° C. for C. albicans; for 48 hrs at 28° C. for A. niger, 32° C. for M, furfur and M. restricta. At the end of the incubation period, 10 μl aliquots from each tube were spot inoculated onto Nutrient agar (for bacteria), SDA (for C. albicans & A. niger), SDA with 1% Tween 80 for M. furfur and Dixon Agar for M. restricta. The plates were incubated for 24 hrs at 37° C. (S. aureus, S. epidermidis & B. subtilis), at 28° C. (C. albicans); 3-4 days at 28° C. (A. niger), 48-72 hrs at 32° C. (M. furfur & M. restricta) when the colonies became visible.
(§7) At the end of the incubation period, plates were checked for growth of colonies.
(§8) 140 mg of the sample was dissolved in 2 ml of Dimethyl Sulfoxide (DMSO) and further diluted in 18 ml of SDB. The final concentration of antimicrobial and functionalized hydrocarbon and/or mixtures containing such functionalized hydrocarbons in the mixture was 333.33 μg/ml and 6666.66 μg/ml respectively.
(§9) 205 mg of the sample was dissolved in 2 ml of Dimethyl Sulfoxide (DMSO) and further diluted in 18 ml of SDB. The final concentration of antimicrobial and functionalized hydrocarbon and/or mixtures containing such functionalized hydrocarbons in the mixture was 250 μg/ml and 10000 μg/ml respectively.

Series [2] deals with Aspergillus niger MTCC 1344. The series can be described thus: MIC by macrobroth double dilution (NCCLS). The format is cell-based. The method, then: as §1, §2, §3, §4, §5, §6, §7, §8, §9
Series [3] deals with Bacillus subtilis MTCC 441. The series can be described thus: MIC by macrobroth double dilution (NCCLS). The class given is cell-based. As to the method:
as §1, §2, §3, §4, §5, §6, §7, §8, §9

Series [4] relates to Candida albicans MTCC 3017. The experiment in a line: MIC by macrobroth double dilution (NCCLS). The class given is cell-based. The method, then:
as §1, §2, §3, §4, §5, §6, §7, §8, §9

Series [5] relates to Malassezia restricta CBS 7877. The series can be described thus: MIC by macrobroth double dilution (NCCLS). The class given is cell-based. The method, then: as §1, §2, §3, §4, §5, §6, §7, §8, §9
Series [6] concerns Staphylococcus aureus MTCC 96. The experiment in a line: MIC by macrobroth double dilution (NCCLS). The format is cell-based. As to the method: as §1, §2, §3, §4, §5, §6, §7, §8, §9
In series [7] the test system is Staphylococcus epidermidis MTCC 435. The experiment in a line: MIC by macrobroth double dilution (NCCLS). The class given is cell-based. As to the method: as §1, §2, §3, §4, §5, §6, §7, §8, §9
The conditions of series [8]: Bhargava & Leonard 1996; cited from earlier work.
Where [9] appears, read: Malassezia furfur, MTCC1374, individual ingredient, M. furfur, read-out: MIC.
Setting [10] is: MTCC1344, individual ingredient, A. niger, read-out: MIC.
[11] abbreviates: MTCC441, individual ingredient, B. subtilis, read-out: MIC.
Where [12] appears, read: MTCC3017, individual ingredient, C. albicans, read-out: MIC.
Setting [13] is: CBS7877, individual ingredient, M. restricta, read-out: MIC.
The mark [14] stands for this setting: MTCC96, individual ingredient, S. aureus, read-out: MIC.
The mark [15] stands for this setting: MTCC435, individual ingredient, S. epidermidis, read-out: MIC.

In brackets after ≈: the same amount, converted by molar mass. Where two headings read alike, the source gives them in different places.

What is called MIC is the lowest concentration found to suppress growth. As to Zinc Pyrithione [ZPTO], the MIC in series [1] (individual ingredient, M. furfur) stood at 3.9 µg/mL.

With `CC(=O)N1CCN(c2ccc(OCC3COC(Cn4ccnc4)(c4ccc(Cl)cc4Cl)O3)cc2)CC1` (stereo not drawn) [KTZ, Ketoconazole], the MIC in series [1] (setting [9]) was 0.48 µg/mL (≈ 0.903 µM).

As to `Oc1cc(Cl)ccc1Oc1ccc(Cl)cc1Cl` [TCS, 2,4,4′-trichloro-2′-hydroxydiphenyl ether, reference compound], the MIC in series [2] (MTCC1344) amounted to 31.2 µg/mL (≈ 108 µM); in series [3] (MTCC441), 15.6 µg/mL (≈ 53.9 µM); in series [4] (MTCC3017), 15.6 µg/mL (≈ 53.9 µM); in series [1] (Malassezia furfur, MTCC1374), 62.5 µg/mL (≈ 216 µM); in series [5] (CBS7877) it was 62.5 µg/mL (≈ 216 µM); in series [6] (MTCC96), 1.95 µg/mL (≈ 6.73 µM). The molecule further registered an MIC in series [7] (MTCC435) of 7.81 µg/mL (≈ 27 µM). The “carcinogenic, mutagenic or teratogenic effects” value in series [8] is “not found to have any carcinogenic, mutagenic or teratogenic effects”. For the same molecule, the “toxicity to humans and other mammals” value in series [8] was “relatively non-toxic”.

Take `CC(C)=CCC/C(C)=C/CO` [Geraniol]: the MIC in series [2] (setting [10]) was 5000 µg/mL (≈ 32400 µM); in series [3] (setting [11]) it was 2500 µg/mL (≈ 16200 µM); in series [4] (setting [12]), 1250 µg/mL (≈ 8100 µM); in series [1] (setting [9]), 156 µg/mL (≈ 1010 µM); in series [5] (setting [13]) it was 312 µg/mL (≈ 2030 µM); in series [6] (setting [14]), 5000 µg/mL (≈ 32400 µM). Moreover, the MIC in series [7] (setting [15]) is 1250 µg/mL (≈ 8100 µM).

`CC(C)=CCC/C(C)=C\CO` [Nerol]: the MIC was found to be 1250 µg/mL (≈ 8100 µM) in series [2] (setting [10]); 10000 µg/mL (≈ 64800 µM) in series [3] (setting [11]); 1250 µg/mL (≈ 8100 µM) in series [4] (setting [12]); 156 µg/mL (≈ 1010 µM) in series [1] (setting [9]); 312 µg/mL (≈ 2030 µM) in series [5] (setting [13]); 5000 µg/mL (≈ 32400 µM) in series [6] (setting [14]). Further, in series [7] (setting [15]), the MIC worked out at 1250 µg/mL (≈ 8100 µM).

In the case of `CC(C)=CCCC(C)=CC=O` [Citral], the MIC in series [2] (setting [10]) stood at 625 µg/mL (≈ 4110 µM); in series [3] (setting [11]) it was 5000 µg/mL (≈ 32800 µM); in series [4] (setting [12]), 156 µg/mL (≈ 1030 µM); in series [1] (setting [9]), 39.1 µg/mL (≈ 257 µM); in series [5] (setting [13]) it was 156 µg/mL (≈ 1030 µM); in series [6] (setting [14]), 312 µg/mL (≈ 2050 µM). Also, in series [7] (setting [15]), the MIC came to 312 µg/mL (≈ 2050 µM).

As for `CC(C)(C)C(=O)C(Oc1ccc(Cl)cc1)n1ccnc1` (stereo not drawn) [CMB, Climbazole], the MIC in series [1] (setting [9]) is 1.95 µg/mL (≈ 6.66 µM).

The record behind these values is patent publication US20090226384A1, “ANTIMICROBIAL COMPOSITION CONTAINING TRICLOSAN AND AT LEAST ONE FUNCTIONALIZED HYDROCARBON” (priority 2006, published 2009).
